Data from ChEMBL document CHEMBL1201862, “PubChem BioAssay data set” (2004).
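Exposure lasted 48 hours, with cells grown in 96-well plates and compounds tested at five concentrations. GI50 is the concentration that inhibits growth by half.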 Calls of active or inactive are those of the source. Cut-off read from the data, not from the text of the source: active = GI50 up to about 1.1 µM and inactive = higher.

Experiments:
Test in all cases: DTP human tumour cell line panel, 48 h
786-0 = test system: 786-0
A549 = test system: A549
ACHN = test system: ACHN
CAKI-1 = test system: CAKI-1
CCRF-CEM = test system: CCRF-CEM
COLO 205 = test system: COLO 205
DLD-1 = test system: DLD-1
DMS-114 = test system: DMS-114
DMS-273 = test system: DMS-273
EKVX = test system: EKVX
HCC 2998 = test system: HCC 2998
HCT-116 = test system: HCT-116
HCT-15 = test system: HCT-15
HL-60 = test system: HL-60
HOP-18 = test system: HOP-18
HOP-62 = test system: HOP-62
HT-29 = test system: HT-29
IGROV-1 = test system: IGROV-1
K562 = test system: K562
KM-20L2 = test system: KM-20L2
KM12 = test system: KM12
LOX IMVI = test system: LOX IMVI
LXFL 529 = test system: LXFL 529
M14 = test system: M14
M19-MEL = test system: M19-MEL
MOLT-4 = test system: MOLT-4
Malme-3M = test system: Malme-3M
NCI-H226 = test system: NCI-H226
NCI-H23 = test system: NCI-H23
NCI-H460 = test system: NCI-H460
NCI-H522 = test system: NCI-H522
OVCAR-3 = test system: OVCAR-3
OVCAR-4 = test system: OVCAR-4
OVCAR-5 = test system: OVCAR-5
OVCAR-8 = test system: OVCAR-8
RPMI-8226 = test system: RPMI-8226
RXF 393 = test system: RXF 393
RXF 631 = test system: RXF 631
SF-268 = test system: SF-268
SF-295 = test system: SF-295
SF-539 = test system: SF-539
SK-MEL-28 = test system: SK-MEL-28
SK-MEL-2 = test system: SK-MEL-2
SK-OV-3 = test system: SK-OV-3
SN12C = test system: SN12C
SNB-19 = test system: SNB-19
SNB-78 = test system: SNB-78
SR = test system: SR
SW-620 = test system: SW-620
TK-10 = test system: TK-10
U-251 = test system: U-251
UACC-257 = test system: UACC-257
UACC-62 = test system: UACC-62
UO-31 = test system: UO-31
XF498 = test system: XF498
A498 = test system: A498
HOP-92 = test system: HOP-92
SK-MEL-5 = test system: SK-MEL-5
SNB-75 = test system: SNB-75

Which GI50 (786-0) does the source give for `CCOC(=O)c1cc(-c2ccc(-c3cc(C(=O)OCC)c(C#N)c(N)c3C#N)cc2)c(C#N)c(N)c1C#N` here?
The GI50 was > 100 µM (inactive).

And the GI50 (A549)?
Its GI50 is > 100 µM (inactive).

And the GI50 (ACHN)?
The GI50 was > 100 µM (inactive).

What about the GI50 (CAKI-1) of the same compound?
The GI50 was > 100 µM (inactive).

What about the GI50 (CCRF-CEM) of the same compound?
The GI50 was > 100 µM (inactive).

And the GI50 (COLO 205)?
The GI50 was > 100 µM (inactive).

And the GI50 (DLD-1)?
The GI50 was > 100 µM (inactive).

And the GI50 (DMS-114)?
Its GI50 is > 100 µM (inactive).

And the GI50 (DMS-273)?
Its GI50 is > 100 µM (inactive).

And the GI50 (EKVX)?
Its GI50 is > 100 µM (inactive).

What about the GI50 (HCC 2998) of the same compound?
The GI50 was > 100 µM (inactive).

And the GI50 (HCT-116)?
The GI50 was > 100 µM (inactive).

What about the GI50 (HCT-15) of the same compound?
Its GI50 is > 100 µM.

And the GI50 (HL-60)?
The GI50 was > 100 µM (inactive).

What about the GI50 (HOP-18) of the same compound?
The GI50 was > 100 µM (inactive).

What about the GI50 (HOP-62) of the same compound?
The GI50 was > 100 µM (inactive).

What about the GI50 (HT-29) of the same compound?
Its GI50 is > 100 µM (inactive).

And the GI50 (IGROV-1)?
Its GI50 is > 100 µM (inactive).

And the GI50 (K562)?
The GI50 was > 100 µM (inactive).

And the GI50 (KM-20L2)?
Its GI50 is > 100 µM (inactive).

And the GI50 (KM12)?
Its GI50 is > 100 µM (inactive).

And the GI50 (LOX IMVI)?
The GI50 was > 100 µM (inactive).

And the GI50 (LXFL 529)?
Its GI50 is > 100 µM (inactive).

And the GI50 (M14)?
Its GI50 is > 100 µM (inactive).

And the GI50 (M19-MEL)?
Its GI50 is > 100 µM (inactive).

What about the GI50 (MOLT-4) of the same compound?
Its GI50 is > 100 µM (inactive).

And the GI50 (Malme-3M)?
Its GI50 is > 100 µM (inactive).

What about the GI50 (NCI-H226) of the same compound?
Its GI50 is > 100 µM (inactive).

What about the GI50 (NCI-H23) of the same compound?
The GI50 was > 100 µM (inactive).

And the GI50 (NCI-H460)?
The GI50 was > 100 µM (inactive).

And the GI50 (NCI-H522)?
Its GI50 is > 100 µM (inactive).

What about the GI50 (OVCAR-3) of the same compound?
The GI50 was > 100 µM (inactive).

And the GI50 (OVCAR-4)?
The GI50 was > 100 µM (inactive).

And the GI50 (OVCAR-5)?
Its GI50 is > 100 µM (inactive).

And the GI50 (OVCAR-8)?
Its GI50 is > 100 µM (inactive).

And the GI50 (RPMI-8226)?
Its GI50 is > 100 µM (inactive).

What about the GI50 (RXF 393) of the same compound?
Its GI50 is > 100 µM (inactive).

What about the GI50 (RXF 631) of the same compound?
The GI50 was > 100 µM (inactive).

What about the GI50 (SF-268) of the same compound?
The GI50 was > 100 µM (inactive).

What about the GI50 (SF-295) of the same compound?
Its GI50 is > 100 µM (inactive).

And the GI50 (SF-539)?
Its GI50 is > 100 µM (inactive).

What about the GI50 (SK-MEL-28) of the same compound?
The GI50 was > 100 µM (inactive).

And the GI50 (SK-MEL-2)?
The GI50 was > 100 µM (inactive).

And the GI50 (SK-OV-3)?
Its GI50 is > 100 µM (inactive).

And the GI50 (SN12C)?
The GI50 was > 100 µM (inactive).

What about the GI50 (SNB-19) of the same compound?
Its GI50 is > 100 µM (inactive).

What about the GI50 (SNB-78) of the same compound?
The GI50 was > 100 µM (inactive).

And the GI50 (SR)?
Its GI50 is > 100 µM (inactive).

What about the GI50 (SW-620) of the same compound?
Its GI50 is > 100 µM (inactive).

And the GI50 (TK-10)?
Its GI50 is > 100 µM (inactive).

And the GI50 (U-251)?
The GI50 was > 100 µM (inactive).

What about the GI50 (UACC-257) of the same compound?
Its GI50 is > 100 µM (inactive).

And the GI50 (UACC-62)?
Its GI50 is > 100 µM (inactive).

And the GI50 (UO-31)?
The GI50 was > 100 µM (inactive).

And the GI50 (XF498)?
The GI50 was > 100 µM (inactive).

What does the source list for `N#Cc1c(C(N)=O)ncn1Cc1ccccc1`?
GI50 (786-0): > 100 µM (inactive); GI50 (A498): > 100 µM (inactive); GI50 (A549): > 100 µM (inactive); GI50 (ACHN): > 100 µM (inactive); GI50 (CAKI-1): > 100 µM (inactive); GI50 (CCRF-CEM): > 100 µM (inactive); GI50 (COLO 205): > 100 µM (inactive); GI50 (DLD-1): > 100 µM (inactive); GI50 (DMS-114): > 100 µM (inactive); GI50 (DMS-273): > 100 µM (inactive); GI50 (EKVX): > 100 µM (inactive); GI50 (HCC 2998): > 100 µM (inactive); GI50 (HCT-116): > 100 µM (inactive); GI50 (HCT-15): > 100 µM; GI50 (HL-60): > 100 µM (inactive); GI50 (HOP-18): > 100 µM (inactive); GI50 (HOP-62): > 100 µM (inactive); GI50 (HOP-92): > 100 µM (inactive); GI50 (HT-29): > 100 µM (inactive); GI50 (IGROV-1): > 100 µM (inactive); GI50 (K562): > 100 µM (inactive); GI50 (KM-20L2): > 100 µM (inactive); GI50 (KM12): > 100 µM (inactive); GI50 (LOX IMVI): > 100 µM (inactive); GI50 (LXFL 529): > 100 µM (inactive); GI50 (M14): > 100 µM (inactive); GI50 (M19-MEL): > 100 µM (inactive); GI50 (MOLT-4): > 100 µM (inactive); GI50 (Malme-3M): > 100 µM (inactive); GI50 (NCI-H226): > 100 µM (inactive); GI50 (NCI-H23): > 100 µM (inactive); GI50 (NCI-H460): > 100 µM (inactive); GI50 (NCI-H522): > 100 µM (inactive); GI50 (OVCAR-3): > 100 µM (inactive); GI50 (OVCAR-4): > 100 µM (inactive); GI50 (OVCAR-5): > 100 µM (inactive); GI50 (OVCAR-8): > 100 µM (inactive); GI50 (RPMI-8226): > 100 µM (inactive); GI50 (RXF 393): > 100 µM (inactive); GI50 (RXF 631): > 100 µM (inactive); GI50 (SF-268): > 100 µM (inactive); GI50 (SF-295): > 100 µM (inactive); GI50 (SF-539): > 100 µM (inactive); GI50 (SK-MEL-2): > 100 µM (inactive); GI50 (SK-MEL-5): > 100 µM (inactive); GI50 (SK-OV-3): > 100 µM (inactive); GI50 (SN12C): > 100 µM (inactive); GI50 (SNB-19): > 100 µM (inactive); GI50 (SNB-75): > 100 µM (inactive); GI50 (SNB-78): > 100 µM (inactive); GI50 (SW-620): > 100 µM (inactive); GI50 (TK-10): > 100 µM (inactive); GI50 (U-251): > 100 µM (inactive); GI50 (UACC-257): > 100 µM (inactive); GI50 (UACC-62): > 100 µM (inactive); GI50 (UO-31): > 100 µM (inactive); GI50 (XF498): > 100 µM (inactive)
